# Test results as given in publication PMC6331978 (Molecules, 2015).
# “Also recorded” adds a separate entry of the source. Read-outs that look alike come from different tables or passages of the source.
# Legend:
# CaCo-2 cells [1] = experiment: Antiproliferative effect in CaCo-2 cells, neutral red uptake (NRU) test; format: cell-based, human; conditions: for IC50: Homo sapiens; for Inhibition of cancer cell proliferation: 0–50 µg/mL, 72 h
# Procedure: Firstly, the antiproliferative effect of five sesquiterpenes CAR, CAO, HUM, NER, VAL was tested in CaCo-2 cancer cells. The cells were incubated with individual sesquiterpenes in concentrations 0–50 µg/mL for 72 h. After incubation, a number of viable cells was assayed using a NRU test and IC50 values were calculated.
# CaCo-2 cancer cells were incubated with DOX alone (concentrations 0.25, 0.5, 1, 2, 4 µM), with individual sesquiterpenes alone (concentrations 6.125, 12.5, 25, 50 µg/mL) and with DOX (concentrations 0.25, 0.5, 1, 2 µM) in combinations with each sesquiterpene (concentrations 6.125, 12.5, 25, 50 µg/mL). […] After 72-h incubation, the number of viable cells was assayed using NRU.
# The human epithelial colorectal adenocarcinoma line CaCo-2 was purchased from ATCC (supplier for Czech Republic: LGC Standards, Lomianki, Poland). […] The CaCo-2 cells were cultured in MEM supplemented with 10% heat-inactivated FBS, 1% non-essential amino acid, 1.5% L-glutamine solution and 0.5% penicillin/streptomycin. Cells were grown in T-75 cm^2 culture flasks in a humidified atmosphere containing 5% CO2 at 37 °C.
# Pure commercially available sesquiterpenes and DOX were pre-dissolved in DMSO or in pure ethanol. The concentration of organic solvent in medium was 0.1%. The cells were exposed to various concentrations of the tested compounds in culture medium. The cells cultured in medium with pure DMSO or ethanol without tested compounds were used as control samples. […] The number of viable CaCo-2 cells was assayed using the neutral red uptake test after 72 h expositions.
# Data are presented as means ± S.D. of a given number of experiments. Statistical significance (evaluated using a one-way ANOVA) was acceptable to a level of p < 0.05. The concentration inducing a 50% decrease of cell viability as compared to control (IC50) was calculated using GraphPad Prism 6.0 nonlinear regression.
# CaCo-2 cells [2] = experiment: Intracellular ROS formation (H2DCF-DA) in CaCo-2 cells; format: cell-based, human; conditions: for Effect on ROS formation, sesquiterpene alone: 10 µg/mL; for Effect of DOX + sesquiterpene on ROS formation compared with DOX alone: DOX 1 µM + sesquiterpene 10 µg/mL
# From the text: (§1) To assess ROS generation in CaCo-2 cells or […], a measurement of 2′,7′-dichlorodihydrofluorescein-diacetate (H2DCF-DA) oxidation was used. This non-fluorescent reagent diffuses passively through the plasma membrane into the cell, where the acetate groups are cleaved by intracellular esterases. The compound can then be oxidized by ROS formed within the cell (particularly by hydroxyl radicals, •OH) to form fluorescent dichlorofluorescein (DCF), while the fluorescence intensity is proportional to the ROS level. CaCo-2 cells or hepatocytes (seeded in a 96-well plate at a density of 2500 cells/well) were washed by PBS buffer and loaded with 100 µL of the tested substances (individual sesquiterpenes, DOX alone, DOX + sesquiterpene combinations pre-dissolved in DMSO) in PBS buffer. After 12-h incubation, 100 µL of 5 μM H2DCF-DA were added. After another incubation of 30-min, fluorescence intensity was measured for 50 min at 37 °C using a microplate reader Tecan Infinite M200 at λex = 485 nm and λem = 525 nm. Cells treated with PBS only with pure DMSO (as a solvent) were used as control samples. The 3% H2O2 solution was used as a positive control.
# hepatocytes = experiment: Intracellular ROS formation (H2DCF-DA) in hepatocytes; format: cell-based, rat; conditions: DOX 1 µM
# From the text: as §1
# [3] = system: primary culture of rat hepatocytes; experiment: Viability of primary culture of rat hepatocytes, MTT test; conditions: 24 h; for Hepatotoxicity / viability of hepatocytes: sesquiterpene alone 0–50 µg/mL
# Procedure: (§2) The toxicity of DOX alone as well as combinations of DOX and sesquiterpene was tested in primary culture of rat hepatocytes. […] The number of viable cells was measured after 24 h exposition of cells to various concentrations of the tested compounds.
# The rat hepatocytes were obtained from rat liver by the two-step collagenase method. Briefly, the liver was perfused with salt solution (0.14 M NaCl, 5.0 mM KCl, 0.8 mM MgSO4) in Na^+/K^+ phosphate buffer (0.2 mM, pH 7.4) containing a calcium binding component (0.4 mM EGTA). […] The collagenase perfusion was proceeded for 5–6 min. After perfusion the liver was transferred to a medium containing BSA and the hepatocytes were released. The obtained suspension was filtered through a nylon mesh and centrifuged at 40× g for 5 min at 4 °C. The pellet was re-suspended in chilled buffer and the washing procedure was twice repeated. Finally, three million viable (75%–85%) cells in 3 mL of culture medium ISOM (1:1 mixture of Ham F12 and Williams’ E) were placed into 96-well plastic dishes. The fetal calf serum was added in the culture medium (5%). Cultures were maintained without the tested compounds for 4 h at 37 °C in a humid atmosphere of air and 5% CO2.
# Pure commercially available sesquiterpenes and DOX were pre-dissolved in DMSO or in pure ethanol. The concentration of organic solvent in medium was 0.1%. The cells were exposed to various concentrations of the tested compounds in culture medium. The cells cultured in medium with pure DMSO or ethanol without tested compounds were used as control samples. […] The viability of the hepatocytes was tested using a MTT assay after 24 h expositions.
# (§3) The mitochondria of living cells are able to reduce yellow MTT (3-(4,5-dimethylthiazol-2-yl)-2,5-diphenyltetrazolium bromide) to purple formazan. The cells were cultured in 96-well plates. After 24 h exposure, 25 µL of MTT solution (3 mg of MTT in 1 mL of PBS) were added to each well. The plates were incubated for an additional 2 h at 37 °C, at which time the medium was removed and the formed formazan was dissolved in 50 µL of 0.08 M HCl in isopropanol by 30 min shaking. The absorbance in each well was read at 570 and 690 nm using a spectrophotometer (Tecan Infinite M200).
# CaCo-2 cells [4] = experiment: Combination of DOX and sesquiterpenes in CaCo-2 cells, NRU test, combination indexes (CalcuSyn); format: cell-based, human; conditions: CaCo-2, 72 h; for Combined effect with DOX (combination index, CI): NRU, CalcuSyn
# Procedure: Concentrations of DOX and sesquiterpenes were selected according to the Chou-Talalay Method. After 72-h incubation, the number of viable cells was assayed using NRU. […] When DOX was used in combinations with individual sesquiterpenes, a significant increase of DOX efficacy was observed.
# With the aim of evaluating and quantifying the combined effect of DOX and sesquiterpenes, combination indexes were calculated using CalcuSyn (ver. 1.1, Biosoft, Cambridge, UK); the plot of combination indexes (CI) vs. fractions of dead cells (Fa) is presented in Figure 5. […] It is important to emphasize that synergy of anticancer agents at high effect levels (Fa > 0.8) is more relevant to therapy than at low levels.
# Figure 5 Combination indexes (CI) of DOX and sesquiterpenes in dependence on fraction of affected CaCo-2 cells (Fa). Incubations lasted for 72 h. Data were calculated using CalcuSyn software.
# The cells were cultured in 96‑well plates. After 72 h exposure, the medium was removed and 100 µL of neutral red-containing medium was added into each well, at which time the plates were incubated for an additional 3 h at 37 °C. The cells were washed with 100 µL of PBS, then fixed in a solution of 0.5% formaldehyde/1% calcium chloride for 15 min. The neutral red dye was extracted from the viable cells with a solvent (50% ethanol/1% acetic acid) by shaking for 30 min at room temperature. The absorbance of solubilized dye was measured using a spectrophotometer (Infinite M200, Tecan, Männedorf, Switzerland) at 540 nm. Each sample was assayed in 6 parallels and 3 independent experiments were performed. The viabilities of the treated cells were expressed as a percentage of untreated controls (100%). The effect of sesquiterpenes on DOX efficacy was evaluated using CalcuSyn software.
# [5] = system: primary culture of rat hepatocytes; experiment: Effect of sesquiterpenes on DOX toxicity in hepatocytes, MTT test; conditions: 24 h; for Effect on DOX toxicity in hepatocytes at 0.5 µM DOX: 0.5 µM DOX + 12.5 µg/mL sesquiterpene; for Effect on DOX toxicity in hepatocytes at other DOX concentrations: DOX 0.25, 1, 2 µM + sesquiterpene
# Procedure: as §2
# Data presented as percentage of control cells (=100%) represent the mean ± S.D. from 2 independent experiments with 6 parallels in each (↑ significant increase; ↓ significant decrease).
# Pure commercially available sesquiterpenes and DOX were pre-dissolved in DMSO or in pure ethanol. The concentration of organic solvent in medium was 0.1%. The cells were exposed to various concentrations of the tested compounds in culture medium. The cells cultured in medium with pure DMSO or ethanol without tested compounds were used as control samples. DMSO (10%) served as a positive control in both the primary culture of hepatocytes and of CaCo-2 cells. […] The viability of the hepatocytes was tested using a MTT assay after 24 h expositions.
# as §3
# CaCo-2 cells [6] = experiment: DOX accumulation in CaCo-2 cells (UHPLC); format: cell-based, human; conditions: 3 h; for Effect on intracellular DOX concentration: DOX 6 µM + sesquiterpene 10 or 50 µg/mL
# Procedure: The effect of sesquiterpenes on DOX accumulation in cells was also studied. Concentrations of DOX within cells after a 3-h incubation of CaCo-2 cells, hepatocytes with DOX alone and DOX + sesquiterpene combinations were analyzed. […] On the other hand, the addition of all sesquiterpenes to DOX led to a concentration-dependent increase of DOX concentration within CaCo-2 cells. […] CAO (at concentration 50 µg/mL) was able to enhance the intracellular DOX concentration in CaCo-2 cells at a rate of 3.6-times.
# The suspension of CaCo-2 cells or hepatocytes (600 µL; density 5000 cells/100 µL) per well was set to a 12-well plate. After 48 h, 600 µL of solutions in medium of the tested substances were added. The cells were treated with DOX (6 µM) alone, or in combination with individual sesquiterpenes (10 or 50 µg/mL) for 3 h. At the end of the experiment, the medium was removed and cells were washed with 500 µL of PBS. One hundred µL of lysing buffer (25 mM Tris, 150 mM NaCl, 1% Triton, pH 7.4) were then added, at which time the cells were lysed for 15 min, then mixed with 300 µL of ice-cold methanol and centrifuged (10,000× g, 10 min, 4 °C). The supernatant was filtered through a 0.22 µm filter and the filtrate was used for analysis.
# DOX was detected on an Agilent 1290 Series UHPLC chromatographic system (Agilent, Santa Clara, CA, USA) equipped with a Zorbax C18 Eclipse Plus (2.1 × 50 mm, 1.8 μm) column with a 1290 Infinity inline filter (Agilent). The HPLC method used by was adapted to a UHPLC system: Isocratic elution of 1.0 mL/min by 0.1% formic acid in water and acetonitrile in ratio 76:24; 30 °C thermostated column compartment; fluorescence detection at λex = 480 nm and λem = 560 nm. Chemical standards were purchased from Toronto Research Chemicals (Toronto, ON, Canada).
# [7] = CaCo-2 cells, 72 h incubation, NRU test, concentrations 0–50 µg/mL, read-out: IC50
SMILES,"IC50 (CaCo-2 cells [1]; CaCo-2 cells, 72-h incubation, NRU, DOX alone, read-out: IC50 (antiproliferative effect of DOX)) [µM]",IC50 (CaCo-2 cells [1]; [7]) [µg/mL],Effect of DOX alone on ROS production (CaCo-2 cells [2]; DOX 1 µM),Effect of DOX alone on ROS production (hepatocytes),Hepatotoxicity of DOX alone ([3]; DOX 0.25–2 µM),"Combined effect with DOX (combination index, CI) (CaCo-2 cells [4])","Inhibition of cancer cell proliferation (CaCo-2 cells [1]; CaCo-2 cells, NRU)","Effect on ROS formation, sesquiterpene alone (CaCo-2 cells [2])",Hepatotoxicity / viability of hepatocytes [3],Effect on DOX toxicity in hepatocytes ([5]; DOX 0.25–2 µM + sesquiterpene 6.125–50 µg/mL),"IC50 (CaCo-2 cells [1]; Caco-2, 72 h) [µg/mL]",Effect of DOX + sesquiterpene on ROS formation compared with DOX alone (CaCo-2 cells [2]),Effect on DOX toxicity in hepatocytes at 0.5 µM DOX [5],Effect on DOX toxicity in hepatocytes at other DOX concentrations [5],Combined effect with DOX at Fa > 0.8 (CaCo-2 cells [4]; higher number of cells affected (Fa > 0.8)),Effect on intracellular DOX concentration (CaCo-2 cells [6]),"Enhancement of intracellular DOX concentration (CaCo-2 cells [6]; sesquiterpene 50 µg/mL, DOX 6 µM, vs DOX alone) [times]",Effect on DOX toxicity in hepatocytes at DOX 0.25 and 2 µM ([5]; DOX 0.25 and 2 µM + sesquiterpene),Combined effect with DOX at lower Fa (CaCo-2 cells [4]; lower fraction of affected cells)
"COc1cccc2c1C(=O)c1c(O)c3c(c(O)c1C2=O)C[C@@](O)(C(=O)CO)C[C@@H]3O[C@H]1C[C@H](N)[C@H](O)[C@H](C)O1 [DOX, doxorubicin, reference compound]",1.9,,increased ROS production,did not have a significant effect,marked hepatotoxicity,,,,,,,,,,,,,,
"C=C(C)[C@@H]1CCC2=CCC[C@@H](C)[C@]2(C)C1 [VAL, valencene]",,,,,,significant synergistic effects with DOX,inhibited the proliferation of CaCo-2 cancer cells,pro-oxidative effects,none of tested sesquiterpenes showed hepatotoxicity,,38.1 ± 2.4,increase the pro-oxidative effect of DOX,increased DOX toxicity,did not influence DOX toxicity,,,,,
"C=C1CC[C@H]2O[C@]2(C)CC[C@@H]2[C@@H]1CC2(C)C [CAO, β-caryophyllene oxide]",,> 50,,,,significant synergistic effects with DOX,inhibited the proliferation of CaCo-2 cancer cells,pro-oxidative effects,none of tested sesquiterpenes showed hepatotoxicity; also recorded: mildly increased the viability of hepatocytes in a concentration-dependent manner,,,increase the pro-oxidative effect of DOX,,,strongest,more pronounced enhancement of DOX accumulation,3.6,significantly ameliorate DOX toxicity,

# Continued, in another order:
"IC50 (CaCo-2 cells [1]; CaCo-2 cells, 72-h incubation, NRU, DOX alone, read-out: IC50 (antiproliferative effect of DOX)) [µM]",IC50 (CaCo-2 cells [1]; [7]) [µg/mL],SMILES,Effect of DOX alone on ROS production (CaCo-2 cells [2]; DOX 1 µM),Effect of DOX alone on ROS production (hepatocytes),Hepatotoxicity of DOX alone ([3]; DOX 0.25–2 µM),"Combined effect with DOX (combination index, CI) (CaCo-2 cells [4])","Inhibition of cancer cell proliferation (CaCo-2 cells [1]; CaCo-2 cells, NRU)","Effect on ROS formation, sesquiterpene alone (CaCo-2 cells [2])",Hepatotoxicity / viability of hepatocytes [3],Effect on DOX toxicity in hepatocytes ([5]; DOX 0.25–2 µM + sesquiterpene 6.125–50 µg/mL),"IC50 (CaCo-2 cells [1]; Caco-2, 72 h) [µg/mL]",Effect of DOX + sesquiterpene on ROS formation compared with DOX alone (CaCo-2 cells [2]),Effect on DOX toxicity in hepatocytes at 0.5 µM DOX [5],Effect on DOX toxicity in hepatocytes at other DOX concentrations [5],Combined effect with DOX at Fa > 0.8 (CaCo-2 cells [4]; higher number of cells affected (Fa > 0.8)),Effect on intracellular DOX concentration (CaCo-2 cells [6]),"Enhancement of intracellular DOX concentration (CaCo-2 cells [6]; sesquiterpene 50 µg/mL, DOX 6 µM, vs DOX alone) [times]",Effect on DOX toxicity in hepatocytes at DOX 0.25 and 2 µM ([5]; DOX 0.25 and 2 µM + sesquiterpene),Combined effect with DOX at lower Fa (CaCo-2 cells [4]; lower fraction of affected cells)
,24.4 ± 2.4,"C/C1=C\CC/C(C)=C/CC(C)(C)/C=C/C1 [HUM, α-humulene]",,,,acted rather additively,most effective; also recorded: inhibited the proliferation of CaCo-2 cancer cells,did not influence ROS formation,none of tested sesquiterpenes showed hepatotoxicity,did not affect DOX toxicity,,,,,,,,,
,28.7 ± 2.5,"C=CC(C)(O)CC/C=C(\C)CCC=C(C)C (racemic) [NER, (±)-trans-nerolidol]",,,,significant synergistic effects with DOX,most effective; also recorded: inhibited the proliferation of CaCo-2 cancer cells,strong antioxidant,none of tested sesquiterpenes showed hepatotoxicity,,,significant antioxidant effect,increased DOX toxicity,did not influence DOX toxicity,,more pronounced enhancement of DOX accumulation,,,most synergistic effect on DOX
